Results: US12655116B2, “Substituted isophthalic acid diamides” (Bayer Aktiengesellschaft, priority 2020, dated 2026)

Key:
[1] = tested on: ABUTH; assay: Pre-emergence herbicidal action against ABUTH; assay type: in vivo, Abutilon theophrasti; details: for Pre-emergence action against ABUTH (herbicidal activity): 80 g/ha, scored visually after 3 weeks vs untreated controls (100% = plants have died, 0% = like control plants)
From the text: (§1) Seeds of monocotyledonous and dicotyledonous weed plants and crop plants are laid out in sandy loam soil in wood-fiber pots and covered with soil. The compounds of the invention, formulated in the form of wettable powders (WP) or as emulsion concentrates (EC), are then applied to the surface of the covering soil in the form of an aqueous suspension or emulsion at a water application rate equivalent to 600 to 800 l/ha, with addition of 0.2% wetting agent. After the treatment, the pots are placed in a greenhouse and kept under good growth conditions for the trial plants. The damage to the test plants is scored visually after a test period of 3 weeks by comparison with untreated controls (herbicidal activity in percent (%): 100% activity=the plants have died, 0% activity=like control plants). […] The tables below illustrate, in an illustrative manner, the post-emergence herbicidal action of the compounds of the invention, the herbicidal activity being stated in percent.

[2] = tested on: AMARE; assay: Pre-emergence herbicidal action against AMARE; assay type: in vivo, Amaranthus retroflexus
From the text: as §1

[3] = tested on: MATIN; assay: Pre-emergence herbicidal action against MATIN; assay type: in vivo, Matricaria inodora
From the text: as §1

[4] = tested on: VERPE; assay: Pre-emergence herbicidal action against VERPE; assay type: in vivo, Veronica persica
From the text: as §1

[5] = tested on: VIOTR; assay: Pre-emergence herbicidal action against VIOTR; assay type: in vivo, Viola tricolor; details: dosage 80 g/ha
From the text: as §1

[6] = tested on: SETVI; assay: Post-emergence herbicidal action against SETVI; assay type: in vivo, Setaria viridis
Experimental: (§2) Seeds of monocotyledonous and dicotyledonous weed and crop plants are laid out in sandy loam soil in wood-fiber pots, covered with soil and cultivated in a greenhouse under good growth conditions. 2 to 3 weeks after sowing, the test plants are treated at the one-leaf stage. The compounds of the invention, formulated in the form of wettable powders (WP) or as emulsion concentrates (EC), are then sprayed onto the green parts of the plants in the form of an aqueous suspension or emulsion at a water application rate equivalent to 600 to 800 l/ha, with addition of 0.2% wetting agent. After the test plants have been left to stand in the greenhouse under optimal growth conditions for about 3 weeks, the action of the preparations is assessed visually in comparison to untreated controls (herbicidal action in percent (%): 100% activity=the plants have died, 0% activity=like control plants). […] The tables below illustrate, in an illustrative manner, the post-emergence herbicidal action of the compounds of the invention, the herbicidal activity being stated in percent.

[7] = tested on: AMARE; assay: Post-emergence herbicidal action against AMARE; assay type: in vivo, Amaranthus retroflexus; details: 20 g/ha, visual assessment about 3 weeks after treatment, 100% = plants have died, 0% = like control plants
Experimental: as §2

[8] = tested on: ALOMY; assay: Pre-emergence herbicidal action against ALOMY; assay type: in vivo, Alopecurus myosuroides; details: 80 g/ha, pre-emergence, scored visually after 3 weeks vs untreated controls (100% = plants have died, 0% = like control plants)
From the text: as §1

[9] = tested on: ECHCG; assay: Pre-emergence herbicidal action against ECHCG; assay type: in vivo, Echinochloa crus-galli; details: 80 g/ha
From the text: as §1

[10] = tested on: DIGSA; assay: Pre-emergence herbicidal action against DIGSA; assay type: in vivo, Digitaria sanguinalis
From the text: as §1

[11] = tested on: ABUTH; assay: Post-emergence herbicidal action against ABUTH; assay type: in vivo, Abutilon theophrasti; details: visual assessment about 3 weeks after treatment vs untreated controls
Experimental: as §2

[12] = tested on: ECHCG; assay: Post-emergence herbicidal action against ECHCG; assay type: in vivo, Echinochloa crus-galli
Experimental: as §2

[13] = tested on: PHBPU; assay: Post-emergence herbicidal action against PHBPU; assay type: in vivo, Pharbitis purpurea; details: dosage 20 g/ha
Experimental: as §2

[14] = tested on: DIGSA; assay: Post-emergence herbicidal action against DIGSA; assay type: in vivo, Digitaria sanguinalis; details: for Post-emergence action against DIGSA: 20 g/ha; for Post-emergence action against DIGSA in %: 5 g/ha
Experimental: as §2

[15] = tested on: SETVI; assay: Pre-emergence herbicidal action against SETVI; assay type: in vivo, Setaria viridis; details: dosage 80 g/ha
From the text: as §1

[16] = tested on: VIOTR; assay: Post-emergence herbicidal action against VIOTR; assay type: in vivo, Viola tricolor; details: 20 g/ha
Experimental: as §2

[17] = tested on: AVEFA; assay: Pre-emergence herbicidal action against AVEFA; assay type: in vivo, Avena fatua; details: 80 g/ha, pre-emergence
From the text: as §1

[18] = 80 g/ha, scored visually after 3 weeks vs untreated controls (100% = plants have died, 0% = like control plants)
[19] = 20 g/ha, scored visually after 3 weeks vs untreated controls, 100% = plants have died, 0% = like control plants

Row | Structure (SMILES) | Pre-emergence action against ABUTH (herbicidal activity) [1] | Pre-emergence action against AMARE in % [2, 18] | Pre-emergence action against MATIN in % ([3]; dosage 80 g/ha) | Pre-emergence action against VERPE in % ([4]; dosage 80 g/ha) | Pre-emergence action against VIOTR in % [5] | Post-emergence action against SETVI in % ([6]; dosage 20 g/ha) | Pre-emergence action against AMARE in % [2, 19] | Post-emergence action at 20 g/ha against AMARE in % [7] | Pre-emergence action against ECHCG in % [9] | Pre-emergence action against DIGSA in % ([10]; dosage 20 g/ha) | Pre-emergence action against DIGSA in % ([10]; dosage 80 g/ha) | Post-emergence action against ABUTH in % ([11]; dosage 20 g/ha) | Post-emergence action against ECHCG in % ([12]; dosage 20 g/ha) | Post-emergence action against DIGSA [14] | Pre-emergence action against MATIN in % ([3]; dosage 20 g/ha) | Pre-emergence action against SETVI in % [15] | Post-emergence action against DIGSA in % [14] | other results
1 | CCn1nnnc1NC(=O)c1ccc(C(F)F)c(C(=O)NCC#N)c1Cl [Example 2-158] | 100% | 100% | 90% | 90% | 100% | 90% | – | – | – | – | – | – | – | – | – | – | – | Pre-emergence action against VERPE in % ([4]; dosage 20 g/ha): 80%; Post-emergence action against SETVI in % ([6]; dosage 5 g/ha): 90%
2 | Cc1c(C(=O)Nc2nnnn2C)ccc(C(F)(F)F)c1C(=O)NCC#N [Example 1-36] | 100% | 100% | – | 90% | – | – | 100% | 100% | – | – | – | – | – | – | – | – | – | –
3 | Cc1nnc(NC(=O)c2ccc(C(F)F)c(C(=O)NCC3CC3)c2C)o1 [Example 6-34] | 100% | 100% | 90% | – | – | 90% | 100% | 100% | 100% | 100% | 100% | 80% | 90% | 80% | – | – | – | Pre-emergence action against ALOMY (herbicidal activity) [8]: 80%; Post-emergence action against ABUTH in % ([11]; dosage 5 g/ha): 80%; Post-emergence action against ECHCG in % ([12]; dosage 5 g/ha): 80%; Post-emergence action against PHBPU in % [13]: 80%
4 | CCc1c(C(=O)Nc2nnc(C)o2)ccc(C(F)(F)F)c1C(=O)NC [Example 6-210] | 100% | 100% | 90% | – | 90% | 100% | – | 100% | 90% | 100% | 100% | 90% | 80% | 90% | 80% | 100% | 90% | Post-emergence action against SETVI in % ([6]; dosage 5 g/ha): 90%; Post-emergence action against VIOTR in % [16]: 80%
5 | COCCNC(=O)c1c(C(F)F)ccc(C(=O)Nc2nnc(C)o2)c1Cl [Example 6-262] | 100% | 100% | 100% | – | 90% | 80% | 90% | 90% | 90% | 100% | 100% | 90% | 80% | 90% | – | 100% | – | Post-emergence action against ABUTH in % ([11]; dosage 5 g/ha): 80%
6 | Cn1nnnc1NC(=O)c1ccc(C(F)F)c(C(=O)NCC#N)c1Cl [Example 1-158] | – | 100% | – | 80% | 90% | – | 100% | 90% | – | – | – | 80% | – | – | – | – | – | Pre-emergence action against VERPE in % ([4]; dosage 20 g/ha): 80%
7 | Cc1nnc(NC(=O)c2ccc(C(F)F)c(C(=O)NC3CCC3)c2Cl)o1 [Example 6-261] | 100% | 100% | 100% | – | – | – | 100% | 90% | 100% | 80% | 100% | 80% | 90% | 90% | 90% | 100% | – | Pre-emergence action against ABUTH (herbicidal activity in percent) ([1]; dosage 20 g/ha, scored visually after 3 weeks vs untreated controls, 100% = plants have died, 0% = like control plants): 80%
8 | Cc1nnc(NC(=O)c2ccc(C(F)F)c(C(=O)NCC(F)(F)F)c2Br)o1 [Example 6-168] | 100% | 100% | 90% | – | – | – | 90% | 100% | 90% | – | – | – | 80% | – | 80% | 90% | – | Pre-emergence action against ALOMY (herbicidal activity) [8]: 80%; Pre-emergence action against AVEFA in % [17]: 80%; Post-emergence action against ECHCG in % ([12]; dosage 5 g/ha): 80%
9 | COc1c(C(=O)Nc2nnc(C)o2)ccc(C(F)(F)F)c1C(=O)NC1CC1 [Example 6-45] | 90% | 100% | 90% | – | 90% | 100% | 80% | 80% | 80% | 90% | 100% | 90% | 90% | 90% | – | 100% | 90% | Post-emergence action against ABUTH in % ([11]; dosage 5 g/ha): 80%
10 | CCn1nnnc1NC(=O)c1ccc(C(F)(F)F)c(C(=O)Nc2ccccc2)c1Cl [Example 2-143] | 100% | 100% | 100% | 80% | 80% | – | – | – | – | – | – | 80% | – | – | 90% | – | – | Post-emergence action against PHBPU in % [13]: 80%
11 | CCNC(=O)c1c(C(F)F)ccc(C(=O)Nc2nnc(C)o2)c1SC [Example 6-75] | – | – | – | – | – | – | – | – | – | – | 80% | – | – | 90% | – | – | – | –
12 | CNC(=O)c1c(C(F)(F)F)ccc(C(=O)Nc2nnc(C)o2)c1OC [Example 6-43] | 100% | 100% | 80% | – | – | 90% | – | – | 100% | – | 100% | – | – | 100% | – | 90% | 90% | –
13 | CCNC(=O)c1c(C(F)(F)F)ccc(C(=O)Nc2nnc(C)o2)c1OC [Example 6-44] | – | 100% | 80% | – | – | 80% | 80% | 90% | 100% | – | – | 80% | 90% | 90% | – | 90% | 80% | –
